Reference: the NIST ThermoML archive (doi:10.1007/s10765-010-0773-1)

Experiment: xn = mol fraction of the nth substance listed
Details: 101 kPa, Liquid; for mass density: Vibrating tube method; for speed of sound: Pulse-echo method

BrCBr [dibromomethane] + CCCCCCC
Details | mass density [kg/m3] | speed of sound [m/s]
288.15 K, x1 = 0.1019 | 779.65 | –
288.15 K, x1 = 0.1838 | 861.49 | –
288.15 K, x1 = 0.2536 | 937.65 | –
288.15 K, x1 = 0.3055 | 998.83 | –
288.15 K, x1 = 0.4064 | 1130.32 | –
288.15 K, x1 = 0.5029 | 1274.13 | –
288.15 K, x1 = 0.6023 | 1444.97 | –
288.15 K, x1 = 0.6525 | 1541.56 | –
288.15 K, x1 = 0.7016 | 1644.24 | –
288.15 K, x1 = 0.8003 | 1878.69 | –
288.15 K, x1 = 0.8961 | 2149.52 | –
288.15 K, x1 = 1 | 2509.06 | –
292.87 K, x1 = 1 | – | 960.63
292.88 K, x1 = 0.9019 | – | 946.13
292.89 K, x1 = 0.1062 | – | 1104
292.89 K, x1 = 0.2032 | – | 1066.3
292.89 K, x1 = 0.304 | – | 1032.1
292.9 K, x1 = 0.405 | – | 1002.4
292.9 K, x1 = 0.4998 | – | 979.49
292.91 K, x1 = 0.7043 | – | 946.92
292.91 K, x1 = 0.8031 | – | 941.84
292.92 K, x1 = 0.6048 | – | 959.47
293.14 K, x1 = 0.2536 | 932.03 | –
293.14 K, x1 = 0.4064 | 1123.66 | –
293.14 K, x1 = 0.6023 | 1436.76 | –
293.14 K, x1 = 0.7016 | 1635.05 | –
293.15 K, x1 = 0.1019 | 774.91 | –
293.15 K, x1 = 0.1838 | 856.29 | –
293.15 K, x1 = 0.3055 | 992.87 | –
293.15 K, x1 = 0.5029 | 1266.74 | –
293.15 K, x1 = 0.6525 | 1532.85 | –
293.15 K, x1 = 0.8003 | 1868.4 | –
293.15 K, x1 = 0.8961 | 2138.01 | –
293.15 K, x1 = 1 | 2496.03 | –
298.14 K, x1 = 0.1838 | 851.06 | –
298.14 K, x1 = 0.2536 | 926.36 | –
298.14 K, x1 = 0.3055 | 986.88 | –
298.14 K, x1 = 0.6023 | 1428.45 | –
298.14 K, x1 = 0.7016 | 1625.79 | –
298.14 K, x1 = 0.8961 | 2126.46 | –
298.15 K, x1 = 0.1019 | 770.15 | –
298.15 K, x1 = 0.2032 | – | 1045.8
298.15 K, x1 = 0.4064 | 1116.96 | –
298.15 K, x1 = 0.5029 | 1259.28 | –
298.15 K, x1 = 0.6525 | 1524.09 | –
298.15 K, x1 = 0.8003 | 1858.05 | –
298.15 K, x1 = 0.9019 | – | 931.96
298.15 K, x1 = 1 | 2482.97 | 947.15
298.16 K, x1 = 0.1062 | – | 1082.4
298.16 K, x1 = 0.304 | – | 1012.7
298.17 K, x1 = 0.4998 | – | 962
298.17 K, x1 = 0.8031 | – | 926.99
298.18 K, x1 = 0.405 | – | 984.03
298.18 K, x1 = 0.7043 | – | 931.29
298.19 K, x1 = 0.6048 | – | 942.98
303.11 K, x1 = 1 | – | 934.52
303.13 K, x1 = 0.1062 | – | 1062.1
303.13 K, x1 = 0.2032 | – | 1026.6
303.13 K, x1 = 0.304 | – | 994.46
303.13 K, x1 = 0.9019 | – | 918.63
303.14 K, x1 = 0.6023 | 1420.11 | –
303.14 K, x1 = 0.8031 | – | 913
303.15 K, x1 = 0.1019 | 765.35 | –
303.15 K, x1 = 0.1838 | 845.79 | –
303.15 K, x1 = 0.2536 | 920.67 | –
303.15 K, x1 = 0.3055 | 980.85 | –
303.15 K, x1 = 0.405 | – | 966.75
303.15 K, x1 = 0.4064 | 1110.22 | –
303.15 K, x1 = 0.4998 | – | 945.56
303.15 K, x1 = 0.5029 | 1251.79 | –
303.15 K, x1 = 0.6525 | 1515.27 | –
303.15 K, x1 = 0.7016 | 1616.48 | –
303.15 K, x1 = 0.7043 | – | 916.56
303.15 K, x1 = 0.8003 | 1847.66 | –
303.15 K, x1 = 0.8961 | 2114.87 | –
303.15 K, x1 = 1 | 2469.88 | –
303.17 K, x1 = 0.6048 | – | 927.45
308.1 K, x1 = 0.2032 | – | 1007.5
308.1 K, x1 = 1 | – | 921.89
308.11 K, x1 = 0.9019 | – | 905.33
308.12 K, x1 = 0.1062 | – | 1041.9
308.12 K, x1 = 0.304 | – | 976.3
308.12 K, x1 = 0.4998 | – | 929.18
308.13 K, x1 = 0.405 | – | 949.39
308.13 K, x1 = 0.8031 | – | 899.01
308.14 K, x1 = 0.6048 | – | 911.94
308.14 K, x1 = 0.7043 | – | 901.84
308.15 K, x1 = 0.1019 | 760.52 | –
308.15 K, x1 = 0.1838 | 840.49 | –
308.15 K, x1 = 0.2536 | 914.94 | –
308.15 K, x1 = 0.3055 | 974.78 | –
308.15 K, x1 = 0.4064 | 1103.44 | –
308.15 K, x1 = 0.5029 | 1244.25 | –
308.15 K, x1 = 0.6023 | 1411.72 | –
308.15 K, x1 = 0.6525 | 1506.41 | –
308.15 K, x1 = 0.7016 | 1607.12 | –
308.15 K, x1 = 0.8003 | 1837.22 | –
308.15 K, x1 = 0.8961 | 2103.24 | –
308.15 K, x1 = 1 | 2456.76 | –
313.14 K, x1 = 0.1019 | 755.67 | –
313.14 K, x1 = 0.5029 | 1236.67 | –
313.14 K, x1 = 0.6525 | 1497.49 | –
313.15 K, x1 = 0.1838 | 835.16 | –
313.15 K, x1 = 0.2536 | 909.16 | –
313.15 K, x1 = 0.3055 | 968.68 | –
313.15 K, x1 = 0.4064 | 1096.62 | –
313.15 K, x1 = 0.6023 | 1403.28 | –
313.15 K, x1 = 0.7016 | 1597.72 | –
313.15 K, x1 = 0.8003 | 1826.75 | –
313.15 K, x1 = 0.8961 | 2091.58 | –
313.15 K, x1 = 1 | 2443.59 | –
313.27 K, x1 = 1 | – | 908.83
313.28 K, x1 = 0.2032 | – | 987.55
313.28 K, x1 = 0.9019 | – | 891.54
313.29 K, x1 = 0.1062 | – | 1021
313.3 K, x1 = 0.304 | – | 957.58
313.31 K, x1 = 0.405 | – | 931.52
313.31 K, x1 = 0.4998 | – | 912.23
313.31 K, x1 = 0.7043 | – | 886.55
313.31 K, x1 = 0.8031 | – | 884.49
313.32 K, x1 = 0.6048 | – | 895.85
318.15 K, x1 = 0.1019 | 750.77 | –
318.15 K, x1 = 0.1838 | 829.78 | –
318.15 K, x1 = 0.2536 | 903.35 | –
318.15 K, x1 = 0.3055 | 962.53 | –
318.15 K, x1 = 0.4064 | 1089.75 | –
318.15 K, x1 = 0.5029 | 1229.04 | –
318.15 K, x1 = 0.6023 | 1394.79 | –
318.15 K, x1 = 0.6525 | 1488.53 | –
318.15 K, x1 = 0.7016 | 1588.27 | –
318.15 K, x1 = 0.8003 | 1816.27 | –
318.15 K, x1 = 0.8961 | 2079.95 | –
318.15 K, x1 = 1 | 2430.37 | –
